One experiment relates to CD8+ T cells. Description: In vitro immunogenicity: T-cell priming with aAPCs loaded with peptide/MHC complexes and anti-CD28 antibody, pMHC multimer readout (Tables 19A, 19B). In kind it is cell-based, human. As to conditions: in vitro immunogenicity of HLA class I peptides, pMHC multimer readout after priming of CD8+ T cells. On the procedure:
In an aspect, the peptides are pre-screened for immunogenicity before being included in the warehouse. By way of example, and not limitation, the immunogenicity of the peptides included in the warehouse is determined by a method comprising in vitro T-cell priming through repeated stimulations of CD8+ T cells from healthy donors with artificial antigen presenting cells loaded with peptide/MHC complexes and anti-CD28 antibody.
In order to obtain information regarding the immunogenicity of the TUMAPs of the present invention, the inventors performed investigations using an in vitro T-cell priming assay based on repeated stimulations of CD8+ T cells with artificial antigen presenting cells (aAPCs) loaded with peptide/MHC complexes and anti-CD28 antibody.
In order to perform in vitro stimulations by artificial antigen presenting cells loaded with peptide-MHC complex (pMHC) and anti-CD28 antibody, the inventors first isolated CD8+ T cells from fresh HLA-A*02 leukapheresis products via positive selection using CD8 microbeads (Miltenyi Biotec, Bergisch-Gladbach, Germany) of healthy donors obtained from the University clinics Mannheim, Germany, after informed consent.
PBMCs and isolated CD8+ lymphocytes were incubated in T-cell medium (TCM) until use consisting of RPMI-Glutamax (Invitrogen, Karlsruhe, Germany) supplemented with 10% heat inactivated human AB serum (PAN-Biotech, Aidenbach, Germany), 100 U/ml Penicillin/100 μg/ml Streptomycin (Cambrex, Cologne, Germany), 1 mM sodium pyruvate (CC Pro, Oberdorla, Germany), 20 μg/ml Gentamycin (Cambrex). 2.5 ng/ml IL7 (PromoCell, Heidelberg, Germany) and 10 U/ml IL-2 (Novartis Pharma, Nurnberg, Germany) were also added to the TCM at this step.
Generation of pMHC/anti-CD28 coated beads, T-cell stimulations and readout was performed in a highly defined in vitro system using four different pMHC molecules per stimulation condition and 8 different pMHC molecules per readout condition.
The purified co-stimulatory mouse IgG2a anti human CD28 Ab 9.3 (Jung et al., 1987) was chemically biotinylated using Sulfo-N-hydroxysuccinimidobiotin as recommended by the manufacturer (Perbio, Bonn, Germany). Beads used were 5.6 μm diameter streptavidin coated polystyrene particles (Bangs Laboratories, Illinois, USA).
pMHC used for positive and negative control stimulations were A*0201/MLA-001 (peptide […] (SEQ ID NO. 303) from modified Melan-A/MART-1) and A*0201/DDX5-001 ([…] from DDX5, SEQ ID NO. 304), respectively.
800.000 beads/200 μl were coated in 96-well plates in the presence of 4×12.5 ng different biotin-pMHC, washed and 600 ng biotin anti-CD28 were added subsequently in a volume of 200 μl. Stimulations were initiated in 96-well plates by co-incubating […] CD8+ T cells with 2×10^5 washed coated beads in 200 μl TCM supplemented with 5 ng/ml IL-12 (PromoCell) for 3 days at 37° C. Half of the medium was then exchanged by fresh TCM supplemented with 80 U/ml IL-2 and incubating was continued for 4 days at 37° C. This stimulation cycle was performed for a total of three times. For the pMHC multimer readout using 8 different pMHC molecules per condition, a two-dimensional combinatorial coding approach was used as previously described (Andersen et al., 2012) with minor modifications encompassing coupling to 5 different fluorochromes. Finally, multimeric analyses were performed by staining the cells with Live/dead near IR dye (Invitrogen, Karlsruhe, Germany), CD8-FITC antibody clone SK1 (BD, Heidelberg, Germany) and fluorescent pMHC multimers. For analysis, a BD LSRII SORP cytometer equipped with appropriate lasers and filters was used. Peptide specific cells were calculated as percentage of total CD8+ cells. Evaluation of multimeric analysis was done using the FlowJo software (Tree Star, Oreg., USA). In vitro priming of specific multimer+ CD8+ lymphocytes was detected by comparing to negative control stimulations.

The test system of a further experiment is HLA-A*24. Nature of the experiment: MHC binding assay, UV-ligand exchange with β2m ELISA, HLA-A*24 (Table 21). On the set-up: species or system human. As to conditions: binding to HLA-A*24 ranged by peptide exchange yield (UV-ligand exchange, β2m ELISA). The gist of the method:
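Peptide–MHC complexes made by UV-ligand exchange of a UV-cleavable peptide, diluted 100-fold and captured on streptavidin plates. Stabilized complexes detected by HRP anti-β2m ELISA (1 h, 37° C, A450). Exchange yield derived against refolded HLA-A*02:01/MLA-001 monomer standards (15-500 ng/ml).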
In general terms: ELISA stands for enzyme-linked immunosorbent assay.

“165 (DYTTWTALL; listed as Homo sapiens) [compound 165]”: the “Wells positive [%]” value in the experiment with CD8+ T cells is reported as “+ (<20% = +)”. Further, in the experiment with HLA-A*24, the Peptide exchange entry is given as “++++ (≧75% = ++++)”.

In the case of “169 (AYTLIAPNI; listed as Homo sapiens) [compound 169]”, in the experiment on CD8+ T cells, the “Wells positive [%]” value was “+++ (50%-69% = +++)”. Moreover, the Peptide exchange result with HLA-A*24 is reported as “+++ (50%-75% = +++)”.

In the case of “281 (PYRLIFEKF; listed as Homo sapiens) [compound 281]”, the “Wells positive [%]” value with CD8+ T cells was “+++ (50%-69% = +++)”. The Peptide exchange entry with HLA-A*24 is on record as “++ (20%-49% = ++)”.

On to “222 (TFSVSSHLF; listed as Homo sapiens) [compound 222]”, for which, in the experiment on CD8+ T cells, the “Wells positive [%]” value is given as “++ (20%-49% = ++)”. In addition, in the experiment with HLA-A*24, the Peptide exchange entry is on record as “+++ (50%-75% = +++)”.

As for “162 (VFTRVSSFL; listed as Homo sapiens) [compound 162]”, in the experiment on CD8+ T cells, the “Wells positive [%]” value was “++ (20%-49% = ++)”. Further, the Peptide exchange entry in the experiment on HLA-A*24 was “+++ (50%-75% = +++)”.

“163 (DYLKGLASF; listed as Homo sapiens) [compound 163]”: in the experiment on CD8+ T cells, the “Wells positive [%]” value is recorded as “+ (<20% = +)”. Also, the Peptide exchange result in the experiment on HLA-A*24 was “++++ (≧75% = ++++)”.

For the substance “197 (EYSLFPGQVVI; listed as Homo sapiens) [compound 197]”, the “Wells positive [%]” value with CD8+ T cells is recorded as “+ (<20% = +)”. Besides, in the experiment with HLA-A*24, the Peptide exchange result is listed as “+++ (50%-75% = +++)”.

“196 (LYIDRPLPYL; listed as Homo sapiens) [compound 196]”: the “Wells positive [%]” value in the experiment on CD8+ T cells is listed as “++++ (≧70% = ++++)”. Further, the Peptide exchange result in the experiment with HLA-A*24 is “+++ (50%-75% = +++)”.

With “176 (EYNQWFTKL; listed as Homo sapiens) [compound 176]”, the “Wells positive [%]” value in the experiment with CD8+ T cells is on record as “+++ (50%-69% = +++)”. Moreover, the Peptide exchange result in the experiment with HLA-A*24 is listed as “+++ (50%-75% = +++)”.

In the case of “199 (RYAEEVGIF; listed as Homo sapiens) [compound 199]”, the “Wells positive [%]” value in the experiment with CD8+ T cells was “++ (20%-49% = ++)”. Also, the Peptide exchange entry in the experiment on HLA-A*24 was “+++ (50%-75% = +++)”.

Take “269 (YFIDSTNLKTHF; listed as Homo sapiens) [compound 269]”: the “Wells positive [%]” value in the experiment on CD8+ T cells is on record as “+ (<20% = +)”. Further, in the experiment with HLA-A*24, the Peptide exchange entry is on record as “+++ (50%-75% = +++)”.

Consider “218 (YYKSTSSAF; listed as Homo sapiens) [compound 218]”, for which the “Wells positive [%]” value in the experiment on CD8+ T cells is recorded as “+ (<20% = +)”. Besides, in the experiment on HLA-A*24, the Peptide exchange result is “+++ (50%-75% = +++)”.

In the case of “159 (LYNKGFIYL; listed as Homo sapiens) [compound 159]”, the “Wells positive [%]” value in the experiment with CD8+ T cells is “++++ (≧70% = ++++)”. The Peptide exchange entry in the experiment with HLA-A*24 is given as “++++ (≧75% = ++++)”.

On to “160 (VYTLDIPVL; listed as Homo sapiens) [compound 160]”, for which, in the experiment on CD8+ T cells, the “Wells positive [%]” value is recorded as “++ (20%-49% = ++)”. Besides, the Peptide exchange entry in the experiment with HLA-A*24 is “++++ (≧75% = ++++)”.

Regarding “200 (YYGPSLFLL; listed as Homo sapiens) [compound 200]”, the “Wells positive [%]” value in the experiment with CD8+ T cells is listed as “++ (20%-49% = ++)”. In addition, the Peptide exchange result in the experiment on HLA-A*24 was “+++ (50%-75% = +++)”.

Regarding “167 (NYINRILKL; listed as Homo sapiens) [compound 167]”, the “Wells positive [%]” value in the experiment with CD8+ T cells is listed as “+ (<20% = +)”. In the experiment on HLA-A*24, the Peptide exchange entry is given as “++++ (≧75% = ++++)”.

Regarding “161 (IYLVSIPEL; listed as Homo sapiens) [compound 161]”, the “Wells positive [%]” value with CD8+ T cells is “++ (20%-49% = ++)”. In the experiment on HLA-A*24, the Peptide exchange entry was “++++ (≧75% = ++++)”.

The values are drawn from US20170189504A1, “NOVEL PEPTIDES AND COMBINATION OF PEPTIDES FOR USE IN IMMUNOTHERAPY AGAINST VARIOUS CANCERS” (immatics biotechnologies GmbH, priority 2015, published 2017).
